Literature values in patent publication US6503496B2, “Non-alcoholic and hypoallergenic face cream for the treatment of razor bumps” (priority 2000, dated 2003).

Legend:
[1] = not given; remark: listed apart in the source

Molecule	toxicity on the skin	solubility in alkaline solution ([1]; alkaline solution)	solubility in water ([1]; water)
O=C([O-])CN(CCN(CC(=O)[O-])CC(=O)O)CC(=O)[O-].[Na+].[Na+].[Na+] [Trisodium EDTA]	No known toxicity	–	–
Aluminium Polyhydrate	–	soluble	Practically insoluble
